Experiment [1] has as its system A2780cis cells. As to the kind of experiment: Short-term (3 h) exposure, cell survival by CellTiter-Blue after 48 h in compound free media. The conditions noted are these: 20 μM compound with various doses of cisplatin, viability after two days, in words. The format is cell-based, human. As to the method: FIG. 5. Short-term exposure of A2780cis cells to the combination of cisplatin and compound 1-6 dramatically reduces cell survival. A2780cis cells were treated with increasing doses of cisplatin alone or the combination of cisplatin with compound 1-6 (20 μM) for 3 h. The compounds were then washed out. Cell survival was determined after 48 h incubation of cells in compound free media by CellTiter-Blue assay.
Further analysis was performed with compound 1-6. […] This synergism for the combination of cisplatin and 1-6 was further confirmed using a fresh sample of high chemical purity (98%). This synergistic effect was also observed using the CellTiter-Blue cell viability assay (FIG. 5) under an alternative exposure strategy that mimics in viva drug administration to test the combination effect. Considering the clearance of cisplatin over the time and the duration of exposure of tumor cells to the effective doses of the drugs in vivo (Los et al., 1989), a short-term exposure of cells to the combination of 20 μM of 1-6 with various doses of cisplatin was tested, followed by cell viability assay after two days.

The subject of experiment [2] is A2780cis cells. As to the kind of experiment: Extracellular flux analysis, oxygen consumption rate (OCR), Seahorse XF24. The format is cell-based, human. As to conditions: compound 50 μM + cisplatin 50 μM, 4 h, FIG. 8B; in words. As to the method: Oxygen consumption rate (OCR) and extracellular acidification rate (ECAR) were measured as previously described (Qian and Van Houten, 2010). Cells were seeded in XF24 cell culture plates at 4×10^4 cells/well and incubated in 5% CO2 at 37° C. Prior to the analysis, cells were washed and growth medium was replaced with bicarbonate-free modified RPMI 1640 medium, the “assay medium” (Molecular Devices, Sunnyvale, Calif.). Cells were then incubated for another 60 min in a 37° C. incubator without CO2. OCR and ECAR measurements were then performed simultaneously using a Seahorse XF24 Extracellular Flux Analyzer (Seahorse Bioscience, North Billerica, Mass.).
To determine the effects of the compounds on DNA damage and mitochondrial dysfunction, A2780cis cells were treated with cisplatin (20 μM) alone or the combination of cisplatin with 20 μM of compound 1-6. Replication protein A (RPA) is a single strand-specific DNA-binding protein, consisting of three subunits, RPA70, RPA32, and RPA14. RPA32 is phosphorylated in response to DNA replication stress. Western blot analysis was performed to evaluate the phosphorylation of RPA32 and histone H2AX, the induction of Noxa expression and cleavage of caspase-3. […] The oxygen consumption rate (OCR) was measured by a Seahorse extracellular flux analyzer.

Experiment [3] has as its system Bax/Bak wildtype (WT) and double knockout (DKO) MEF cells. As to the kind of experiment: Western blot of Caspase-8, 9 and 3 cleavage in Bax/Bak WT and DKO cells. The conditions noted are these: compound 20 μM + cisplatin 10 μM, 20 h, FIG. 8C; in words. The format is cell-based, mouse. As to the method:
Whole cell lysate was prepared by lysing cells in cell lysis buffer (Cell signaling technology) containing complete protease inhibitor (Roche). Cell lysates were then cleared at 15,000 rpm for 15 min at 4° C. The protein content was quantified using a Bio-Rad Protein Assay kit (Bio-Rad Laboratories, Hercules, Calif.). The equal amount of protein was separated on Tris-glycine gels (Invitrogen). The separated proteins were blotted onto a polyvinylidene difluoride membrane and blocked overnight at 4° C. in phosphate-buffered saline containing 0.1% Tween 20 and 10% nonfat dry milk (blocking buffer). Membranes were incubated with primary antibodies in blocking buffer overnight at 4° C. Primary antibodies used were: β-actin from Sigma; Bax, Bak, Caspase-9 and cleaved Caspase-3 from Cell Signaling Technology; phospho-Histone H2AX (Ser 139) and Noxa from Millipore. Membranes were then washed and incubated in peroxidase conjugated anti-rabbit IgG (Sigma) or anti-mouse IgG (Sigma) secondary antibody for 1 h at room temperature. Membranes were developed using SuperSignal West Femto Maximum Sensitivity Substrate (Thermo Fisher Scientific).
In order to understand the role of Bax and Bak in the efficacy of cisplatin and compound 1-6, Bax/Bak double knockout (DKO) SV40-transformed MEF cells were used. […] The cleavage of Caspase-8, 9, and 3 were determined by western blot.
A general note: A western blot detects proteins with antibodies after separation by electrophoresis.

Turning to `CCOCCCn1c(=S)[nH]c2c(C)cccc2c1=O` [Compound 1-6], the “effect of 3 hr exposure to the combination with cisplatin on proliferation” value in the experiment with A2780cis cells [1] is given as “severe long-term proliferation defect”. Further, the “mitochondrial function (OCR, response to oligomycin) after combination with cisplatin” value in the experiment with A2780cis cells [2] is recorded as “uncoupling of mitochondria was observed”. The “cleavage of caspases in Bax/Bak WT and DKO MEF cells, combination with cisplatin” value in experiment [3] was “cleavage of Caspase 3 and 9 independent of Bax or Bak activity”.

(Values after patent US10478437B2, “Combination therapy to enhance the anticancer efficacy of platinum drugs” (University of Pittsburgh-of the Commonwealth System of …, priority 2014, dated 2019).)
